Experiments:
Format in all cases: biochemical
[1] = target: T1, SIRT6 (Homo sapiens, UniProt Q8N6T7); experiment: Fluorescence enhancement due to enzymatic reaction of SFP1-3 with SIRT6; settings: 5 mM NAM, 48 nM SIRT6, 500 μM NAD, 37 °C
[2] = target: T2, SIRT1 (Homo sapiens, UniProt Q96EB6); experiment: Evaluation of SIRT inhibitors and activators with SFP3, SIRT1; settings: hydrolysis of 2.5 μM SFP3, 7 nM SIRT1, 500 μM NAD+, 37 °C, 60 min
T2 sequence (Q96EB6 1-747): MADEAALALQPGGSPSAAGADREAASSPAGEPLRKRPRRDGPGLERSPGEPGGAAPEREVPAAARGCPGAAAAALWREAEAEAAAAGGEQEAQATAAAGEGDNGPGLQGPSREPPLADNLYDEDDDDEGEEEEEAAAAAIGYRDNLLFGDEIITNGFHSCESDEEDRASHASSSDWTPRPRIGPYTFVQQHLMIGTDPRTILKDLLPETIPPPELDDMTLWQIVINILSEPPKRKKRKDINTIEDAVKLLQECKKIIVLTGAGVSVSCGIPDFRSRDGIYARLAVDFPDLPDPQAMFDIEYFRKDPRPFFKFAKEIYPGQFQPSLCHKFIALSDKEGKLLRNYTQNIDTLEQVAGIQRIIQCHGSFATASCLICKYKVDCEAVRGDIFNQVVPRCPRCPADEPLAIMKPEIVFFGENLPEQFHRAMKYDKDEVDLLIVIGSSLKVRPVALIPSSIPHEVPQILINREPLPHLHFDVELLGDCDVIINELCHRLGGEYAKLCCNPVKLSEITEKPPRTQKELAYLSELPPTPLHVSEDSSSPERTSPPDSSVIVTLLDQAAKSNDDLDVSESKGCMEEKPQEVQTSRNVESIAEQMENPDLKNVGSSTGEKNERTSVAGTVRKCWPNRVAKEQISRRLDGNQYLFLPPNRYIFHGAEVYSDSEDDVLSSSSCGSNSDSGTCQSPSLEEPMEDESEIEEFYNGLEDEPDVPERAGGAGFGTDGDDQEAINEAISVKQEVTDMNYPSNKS

[3] = target: T1, SIRT6; experiment: Evaluation of SIRT inhibitors and activators with SFP3, SIRT6

T1 sequence (Q8N6T7 whole entry): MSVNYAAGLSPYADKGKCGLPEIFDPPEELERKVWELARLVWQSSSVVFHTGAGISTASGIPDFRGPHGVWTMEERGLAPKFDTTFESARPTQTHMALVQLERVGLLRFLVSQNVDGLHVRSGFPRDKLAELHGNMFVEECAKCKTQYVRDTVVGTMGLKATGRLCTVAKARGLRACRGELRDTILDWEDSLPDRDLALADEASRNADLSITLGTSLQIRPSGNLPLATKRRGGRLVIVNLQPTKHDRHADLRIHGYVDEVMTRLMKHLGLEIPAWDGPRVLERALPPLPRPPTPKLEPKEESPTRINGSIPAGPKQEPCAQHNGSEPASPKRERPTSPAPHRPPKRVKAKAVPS

SMILES: NC(=O)c1cccnc1 [NAM, nicotinamide]
- effect on SIRT6-dependent fluorescence increments of SFP2 and SFP3 [1]: suppressed

SMILES: O=c1c(O)c(-c2ccc(O)c(O)c2)oc2cc(O)cc(O)c12 [Quercetin, quercetin]
- effect on SIRT1 activity [2]: inhibition at lower concentration, but activation at higher concentration
- effect on SIRT6 activity ([3]; hydrolysis of 2.5 μM SFP3, 48 nM SIRT6, 500 μM NAD+, 37 °C, 60 min): inhibition at lower concentration, but activation at higher concentration

SMILES: Oc1ccc(/C=C/c2cc(O)cc(O)c2)cc1 [Resveratrol, resveratrol]
- effect on SIRT1 activity [2]: did not affect
- IC50 [3]: ~190 µM

Reference: PMC5095863 (Chembiochem, 2016)
